Test results reported in US20090029992A1, “SUBSTITUTED PYRAZOLE COMPOUNDS” (priority 2007, published 2009).

Columns and labels:
recombinant Aurora A = target: T1, recombinant Aurora A (Homo sapiens, UniProt O14965); test: Aurora A (Aurora 2) inhibition assay, Z'-Lyte kinase assay; type: biochemical; details: ATP 10 μM, 1 h
T1 construct: purchased Upstate, Lake Placid, N.Y
T1 sequence (O14965 1-403): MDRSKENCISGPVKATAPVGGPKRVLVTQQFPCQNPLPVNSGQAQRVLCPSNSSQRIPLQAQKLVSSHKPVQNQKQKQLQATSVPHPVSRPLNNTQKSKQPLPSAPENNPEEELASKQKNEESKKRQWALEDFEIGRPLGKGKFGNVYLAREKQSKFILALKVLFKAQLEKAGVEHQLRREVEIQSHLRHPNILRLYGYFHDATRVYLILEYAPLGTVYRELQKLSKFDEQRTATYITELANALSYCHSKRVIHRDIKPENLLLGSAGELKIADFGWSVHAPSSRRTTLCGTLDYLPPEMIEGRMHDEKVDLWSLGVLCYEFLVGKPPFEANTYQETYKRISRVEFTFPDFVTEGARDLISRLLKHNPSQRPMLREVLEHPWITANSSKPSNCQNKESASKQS
In short: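 Z'-Lyte FRET assay: Aurora A (200-500 ng/mL final), Ser/Thr 1 peptide (2 μM) and ATP (10 μM) in 50 mM HEPES pH 7.5, 10 mM MgCl2, 5 mM EGTA, 0.05% Brij-35, 2 mM DTT, 1 h at room temperature. Coumarin/fluorescein emission ratio converted to percent phosphorylation; dose-response curves plotted.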

Aurora B kinase = target: T2, Aurora B kinase (Homo sapiens, UniProt Q96GD4); test: Aurora B (Aurora 1) inhibition assay; type: biochemical; details: ATP 50 μM, 16 h
T2 construct: purchased BPS Biosciences, San Diego, Calif
T2 sequence (Q96GD4 whole entry): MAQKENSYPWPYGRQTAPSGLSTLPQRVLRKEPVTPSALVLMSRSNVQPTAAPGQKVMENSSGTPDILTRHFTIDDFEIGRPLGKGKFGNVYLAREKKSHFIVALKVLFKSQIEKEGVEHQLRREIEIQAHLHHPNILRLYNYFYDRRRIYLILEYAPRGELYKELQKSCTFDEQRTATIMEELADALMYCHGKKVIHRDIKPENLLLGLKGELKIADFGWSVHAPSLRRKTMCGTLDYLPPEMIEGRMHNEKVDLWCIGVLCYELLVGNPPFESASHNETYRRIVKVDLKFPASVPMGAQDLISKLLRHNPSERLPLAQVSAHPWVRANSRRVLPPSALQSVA
Protocol: Compounds were tested for their potency against recombinant Aurora A (Upstate, Lake Placid, N.Y.) using the PanVera Z′-Lyte kinase assay kit—Ser/Thr 1 peptide (Invitrogen, Carlsbad, Calif.). Assays were carried out in kinase assay buffer (50 mM HEPES, pH 7.5, 10 mM MgCl2, 5 mM EGTA, 0.05% Brij-35, 2 mM DTT). Test compounds were initially dissolved in DMSO at 100× the highest tested concentration, then serially diluted to 4× test concentrations in kinase assay buffer. Next, Aurora A (final concentration 200-500 ng/mL), Z′-Lyte Ser/Thr 1 peptide (final concentration 2 μM) and ATP (final concentration 10 μM) were added according to the manufacturer's instructions. Assays were carried out in half-area 96-well white polystyrene assay plates (Corning, Corning, N.Y.) in a final volume of 20 μl. The reaction was allowed to proceed for 1 h at room temperature in the dark, at which point the development reagent and stop reagent were added according to the manufacturer's instructions. Coumarin (Ex. 400 nm, Em. 465 nm) and fluorescein (Ex. 400 nm, Em. 565 nm) fluorescence values were measured on a SpectraFluor Plus plate reader (Tecan, Durham, N.C.). The emission ratio (coumarin/fluorescein) was determined and used to calculate the percent phosphorylation for each well. Wells containing substrate but no kinase and wells containing a phosphopeptide control were used to set 0% and 100% phosphorylation values, respectively. Typically 20-40% of the substrate was phosphorylated in wells without inhibitor. Dose-response curves of relative Aurora A activity vs. inhibitor concentration were plotted with Grafit (Erithacus Software, Horley, Surrey, UK).
Assays for Aurora B kinase inhibition were carried out similarly to those for Aurora A kinase (see above) with the following modifications. Aurora B kinase (BPS Biosciences, San Diego, Calif.) was used as the enzyme, at a concentration was 2.5 μg/mL. The ATP concentration was 50 μM, and the kinase reaction was allowed to proceed for 16 h. Sodium orthovanadate (20 μM) was added to the buffer to inhibit contaminating phosphatases.

HCT116 cells = test: Whole cell cytotoxicity assay, Sulforhodamine B; type: cell-based; details: Homo sapiens, HCT-116, HCT116, 96 hours incubation, SRB; for GI50: read-out: GI50 HCT116 cell growth; for IC50: read-out: IC50 values in this assay (HCT116 cell growth)
In short: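 HCT116 cells (500/well) in DMEM/10% FBS/2 mM glutamine were preincubated 24 h, then exposed to compound for 96 h at 37 °C, 5% CO2, in duplicate. Cells were fixed with TCA and stained with sulforhodamine B (A570). GI50, TGI and LC50 were derived relative to a time-zero plate and an untreated control.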

| Compound | IC50 (recombinant Aurora A) [nM] | IC50 (Aurora B kinase) [nM] | GI50 (HCT116 cells) [nM] | IC50 (HCT116 cells) [nM] |
| --- | --- | --- | --- | --- |
| Cc1cc(Nc2cc(N3CCN(C)CC3)nc(-c3cccc(-c4ccccc4)c3)n2)n[nH]1 [Compound 16, 2-(biphenyl-3-yl)-N-(5-methyl-1H-pyrazol-3-yl)-6-(4-methylpiperazin-1-yl)pyrimidin-4-amine] | ≤ 100 | ≤ 1000 | ≤ 1000 | – |
| Cc1cc(Nc2cc(N3CCN(C)CC3)nc(-c3cccc(C#N)c3)n2)n[nH]1 [Example 163, 3-(4-(5-methyl-1H-pyrazol-3-ylamino)-6-(4-methylpiperazin-1-yl)pyrimidin-2-yl)benzonitrile] | ≤ 100 | ≤ 1000 | ≤ 1000 | – |
| Cc1cc(Nc2cc(N3CCN(C)CC3)nc(-c3cc(F)cc(F)c3)n2)n[nH]1 [Example 170, 2-(3,5-difluorophenyl)-N-(5-methyl-1H-pyrazol-3-yl)-6-(4-methylpiperazin-1-yl)pyrimidin-4-amine] | ≤ 100 | ≤ 1000 | ≤ 1000 | – |
| Cc1cc(Nc2cc(NC3CCOCC3)nc(-c3cccc(F)c3)n2)n[nH]1 [Compound 20, 2-(3-fluorophenyl)-N^4-(5-methyl-1H-pyrazol-3-yl)-N^6-(tetrahydro-2H-pyran-4-yl)pyrimidine-4,6-diamine] | ≤ 100 | ≤ 1000 | – | 1000 to 10000 |
| COC(=O)c1cccc(-c2nc(Nc3cc(C)[nH]n3)cc(N3CCN(C)CC3)n2)c1 [Example 166, methyl 3-(4-(5-methyl-1H-pyrazol-3-ylamino)-6-(4-methylpiperazin-1-yl)pyrimidin-2-yl)benzoate] | ≤ 100 | ≤ 1000 | ≤ 1000 | – |
| Cc1cc(Nc2cc(N3CCN(C)CC3)nc(-c3cccc(Cl)c3)n2)n[nH]1 [Compound 36, 2-(3-chlorophenyl)-N-(5-methyl-1H-pyrazol-3-yl)-6-(4-methylpiperazin-1-yl)pyrimidin-4-amine] | ≤ 100 | ≤ 1000 | ≤ 1000 | – |
| Cc1cc(Nc2cc(NC3CCOCC3)nc(-c3cc4ccccc4o3)n2)n[nH]1 [Compound 15, 2-(benzofuran-2-yl)-N^4-(tetrahydro-2H-pyran-4-yl)-N^6-(5-methyl-1H-pyrazol-3-yl)-pyrimidine-4,6-diamine] | ≤ 100 | ≤ 1000 | ≤ 1000 | – |
| Cc1cc(Nc2cc(NC3CCOCC3)nc(-c3ccc4c(c3)OCCO4)n2)n[nH]1 [Example 130, 2-(2,3-dihydrobenzo[b][1,4]dioxin-6-yl)-N^4-(5-methyl-1H-pyrazol-3-yl)-N^6-(tetrahydro-2H-pyran-4-yl)pyrimidine-4,6-diamine] | ≤ 100 | ≤ 1000 | – | 1000 to 10000 |
| CC(=O)c1cccc(-c2nc(Nc3cc(C)[nH]n3)cc(N3CCN(C)CC3)n2)c1 [Example 165, 1-(3-(4-(5-methyl-1H-pyrazol-3-ylamino)-6-(4-methylpiperazin-1-yl)pyrimidin-2-yl)phenyl)ethanone] | ≤ 100 | ≤ 1000 | ≤ 1000 | – |
| CCOc1cccc(-c2nc(Nc3cc(C)[nH]n3)cc(N3CCN(C)CC3)n2)c1 [Example 190, 2-(3-ethoxyphenyl)-N-(5-methyl-1H-pyrazol-3-yl)-6-(4-methylpiperazin-1-yl)pyrimidin-4-amine] | ≤ 100 | ≤ 1000 | ≤ 1000 | – |
| Cc1cc(Nc2cc(NC3CCOCC3)nc(-c3cccc(N(C)C)c3)n2)n[nH]1 [Compound 74, 2-(3-(dimethylamino)phenyl)-N^4-(5-methyl-1H-pyrazol-3-yl)-N^6-(tetrahydro-2H-pyran-4-yl)pyrimidine-4,6-diamine] | ≤ 100 | ≤ 1000 | ≤ 1000 | – |
| Cc1cc(Nc2cc(N3CCN(C)CC3)nc(-c3ccc4c(c3)OCCO4)n2)n[nH]1 [Example 137, 2-(2,3-dihydrobenzo[b][1,4]dioxin-6-yl)-N-(5-methyl-1H-pyrazol-3-yl)-6-(4-methylpiperazin-1-yl)pyrimidin-4-amine] | ≤ 100 | ≤ 1000 | ≤ 1000 | – |
| Cc1cc(Nc2cc(N3CCN(C)CC3)nc(-c3ccccc3)n2)n[nH]1 [Compound 8, N-(5-methyl-1H-pyrazol-3-yl)-6-(4-methylpiperazin-1-yl)-2-phenyl pyrimidin-4-amine] | ≤ 100 | ≤ 1000 | ≤ 1000 | – |
| COc1cccc(-c2nc(Nc3cc(C)[nH]n3)cc(N3CCN(C)CC3)n2)c1 [Compound 42, 2-(3-methoxyphenyl)-N-(5-methyl-1H-pyrazol-3-yl)-6-(4-methylpiperazin-1-yl)pyrimidin-4-amine] | ≤ 100 | ≤ 1000 | ≤ 1000 | – |
| Cc1cc(Nc2cc(N3CCN(C)CC3)nc(-c3ccc4c(c3)OCO4)n2)n[nH]1 [Example 139, 2-(benzo[d][1,3]dioxol-5-yl)-N-(5-methyl-1H-pyrazol-3-yl)-6-(4-methylpiperazin-1-yl)pyrimidin-4-amine] | ≤ 100 | ≤ 1000 | ≤ 1000 | – |
| Cc1cc(Nc2cc(N3CCN(C)CC3)nc(-c3cccc(F)c3)n2)n[nH]1 [Compound 33, 2-(3-fluorophenyl)-N-(5-methyl-1H-pyrazol-3-yl)-6-(4-methylpiperazin-1-yl)pyrimidin-4-amine] | ≤ 100 | ≤ 1000 | ≤ 1000 | – |
| Cc1cc(Nc2cc(N3CCN(C)CC3)nc(-c3cccc([N+](=O)[O-])c3)n2)n[nH]1 [Example 162, N-(5-methyl-1H-pyrazol-3-yl)-6-(4-methylpiperazin-1-yl)-2-(3-nitrophenyl)pyrimidin-4-amine] | ≤ 100 | ≤ 1000 | ≤ 1000 | – |
| COc1cc(OC)cc(-c2nc(Nc3cc(C)[nH]n3)cc(N3CCN(C)CC3)n2)c1 [Example 191, 2-(3,5-dimethoxyphenyl)-N-(5-methyl-1H-pyrazol-3-yl)-6-(4-methylpiperazin-1-yl)pyrimidin-4-amine] | ≤ 100 | ≤ 1000 | ≤ 1000 | – |
